This note sets out measurements from PubChem BioAssay (NCI).

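These data come from cells grown in 96-well plates and exposed to compound for 48 hours at five concentrations. GI50 marks 50% less growth. TGI is the concentration that stops growth completely.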

One test deals with SNB-19 CNS. The test can be described thus: NCI-60 cell line screen, 48 h.
As for `c1cnn2ncc(-c3ccnc(Nc4ccc5c(c4)OCCO5)n3)c2c1`, the GI50 was 0.0882 µM and the TGI is greater than 25 µM.
In the case of `COc1ccc2[nH]c(-c3ccc(O)cc3)cc(=O)c2c1`, the TGI is greater than 100 µM.
Same read-out and setting: the same measure for `Cc1cc(C)n(C2=NS(=O)(=O)c3ccccc3N2C)n1`: greater than 100 µM.
Still for that read-out and setting: the same measure for `COc1ccc2c(NCCCCCCNc3c4ccccc4nc4cc(OC)ccc34)c3ccccc3nc2c1`: 3.75 µM.
`O=C(O)c1ccccc1C(=O)c1ccc2c(c1)Cc1ccccc1-2` had a TGI greater than 100 µM.
`C=CC1=C(C)C2=NC1=CC1=NC(=CC3=C(C)C4=C(O)[C@H](C(=O)OC)C(=C5NC(=C2)[C@@H](C)[C@@H]5CCC(=O)O)C4=N3)C(CC)=C1C` had a TGI greater than 100 µM.
In the case of `CSc1ccc(N(C)c2nc(C)nc3c2CCC3)cc1`, the GI50 is less than 0.01 µM and the TGI is greater than 100 µM.
Turning to `O=C1/C(=C/c2ccc([N+](=O)[O-])cc2)COc2ccc(O)cc21`, the GI50 is 4.29 µM and the TGI turned out to be 30.8 µM.
`CN1c2ccccc2SC2C(c3ccccc3)=NOC21` (configuration not stated) displayed a TGI greater than 100 µM.
`O=[N+]([O-])c1ccc(-c2cc3c(Nc4ccc(Cl)c(C(F)(F)F)c4)ncnc3s2)cc1`: the GI50 is 1.29 µM and the TGI was greater than 86.4 µM.
As to `CCOC(=O)N1CCN(CCCCCOc2ccccc2C2CCCCC2)CC1`, the GI50 was 10.7 µM and the TGI was 22.6 µM.
The corresponding values for `O=C1c2ccccc2-c2c1c1ccccc1c(=O)n2CCNCCn1c2c(c3ccccc3c1=O)C(=O)c1ccccc1-2` are 0.333 µM and greater than 25 µM.
As to `CC(C)(C)NCC(COc1ccc([N+](=O)[O-])cc1)OP(c1ccccc1)c1ccccc1` (configuration not stated), the TGI was greater than 100 µM.
As for `CCNCCNc1cc(-c2ccc(C#N)cc2)c(C#N)c2nc3ccccc3n12`, the GI50 was 4.69 µM and the TGI is 17.4 µM.
For the compound `Cc1cccc(C)c1N1C(=O)C(=O)C(c2nc3ccccc3s2)C(=Nc2cccc3c(=O)[nH][nH]c(=O)c23)C1=O` (configuration not stated), the TGI is greater than 100 µM.
Consider `[2H]c1nc(=Nc2cc(NC(=O)C=C)c(N(C)CCN(C)C)cc2OC)[nH]c(-c2cn(C([2H])([2H])[2H])c3ccccc23)c1[2H]`, for which the GI50 is 1.4 µM and the TGI turned out to be 3.05 µM.
As for `Cn1c(=O)nc2n(-c3ccc(Cl)c(C(F)(F)F)c3)c3ccccc3nc-2c1=O`, the TGI is 63.1 µM.

A further test relates to RPMI-8226 leukemia. Put plainly: NCI-60 cell line screen, 48 h.
On to `O=C(Cl)C1=C(c2ccccc2)C1c1ccccc1` (configuration not stated), for which the TGI was greater than 100 µM.
Turning to `O=C(/C=C/c1cccc(O)c1)c1cccc(-n2cc(-c3ccc4ccccc4c3)[nH]c2=O)c1`, the GI50 was 1.67 µM and the TGI turned out to be 6.91 µM.
For the compound `c1cnn2ncc(-c3ccnc(Nc4ccc5c(c4)OCCO5)n3)c2c1`, the GI50 is 0.0783 µM and the TGI was found to be 0.388 µM.
`COc1ccc2[nH]c(-c3ccc(O)cc3)cc(=O)c2c1` yielded a TGI of 65.2 µM.
`COc1ccc2c(NCCCCCCNc3c4ccccc4nc4cc(OC)ccc34)c3ccccc3nc2c1` yielded a TGI of 0.717 µM.
Consider `COc1cccc2c(=O)c3c(sc12)c(NCCCNCCO)nc1ccccc13`, for which the GI50 is 1.73 µM and the TGI is 3.71 µM.
In turn, `O=C(O)c1ccccc1C(=O)c1ccc2c(c1)Cc1ccccc1-2` yielded a TGI greater than 100 µM.
For the compound `CSc1ccc(N(C)c2nc(C)nc3c2CCC3)cc1`, the GI50 was less than 0.01 µM and the TGI was 25 µM.
For `O=C1/C(=C/c2ccc([N+](=O)[O-])cc2)COc2ccc(O)cc21`, in that order: 0.326 µM and 1.65 µM.
For `O=[N+]([O-])c1ccc(-c2cc3c(Nc4ccc(Cl)c(C(F)(F)F)c4)ncnc3s2)cc1`, in that order: 0.555 µM and 2.81 µM.
The corresponding values for `CCOC(=O)N1CCN(CCCCCOc2ccccc2C2CCCCC2)CC1` are 1.61 µM and 4.84 µM.
For `CC(C)(C)NCC(COc1ccc([N+](=O)[O-])cc1)OP(c1ccccc1)c1ccccc1` (configuration not stated), the TGI came out at 35.3 µM.
Regarding `CCNCCNc1cc(-c2ccc(C#N)cc2)c(C#N)c2nc3ccccc3n12`, the GI50 was 4.78 µM and the TGI came out at 19.5 µM.
As to `Cc1cccc(C)c1N1C(=O)C(=O)C(c2nc3ccccc3s2)C(=Nc2cccc3c(=O)[nH][nH]c(=O)c23)C1=O` (configuration not stated), the TGI is greater than 100 µM.
`Cn1c(=O)nc2n(-c3ccc(Cl)c(C(F)(F)F)c3)c3ccccc3nc-2c1=O` registered a TGI greater than 100 µM.

A further test concerns MCF7 breast. Put plainly: NCI-60 cell line screen, 48 h.
`O=C(Cl)C1=C(c2ccccc2)C1c1ccccc1` (configuration not stated) had a TGI greater than 100 µM.
With `O=C(/C=C/c1cccc(O)c1)c1cccc(-n2cc(-c3ccc4ccccc4c3)[nH]c2=O)c1`, the GI50 is 0.471 µM and the TGI came out at 1.83 µM.
For `c1cnn2ncc(-c3ccnc(Nc4ccc5c(c4)OCCO5)n3)c2c1`, in that order: 0.0797 µM and greater than 25 µM.
`COc1ccc2[nH]c(-c3ccc(O)cc3)cc(=O)c2c1` showed a TGI greater than 100 µM.
On the same count and under the same terms, under `Cc1cc(C)n(C2=NS(=O)(=O)c3ccccc3N2C)n1` stands greater than 100 µM.
Same read-out and setting: the same measure for `COc1ccc2c(NCCCCCCNc3c4ccccc4nc4cc(OC)ccc34)c3ccccc3nc2c1`: 3.35 µM.
`COc1cccc2c(=O)c3c(sc12)c(NCCCNCCO)nc1ccccc13`: the GI50 is 1.46 µM and the TGI amounted to 3 µM.
Regarding `O=C(O)c1ccccc1C(=O)c1ccc2c(c1)Cc1ccccc1-2`, the TGI was greater than 100 µM.
Consider `C=CC1=C(C)C2=NC1=CC1=NC(=CC3=C(C)C4=C(O)[C@H](C(=O)OC)C(=C5NC(=C2)[C@@H](C)[C@@H]5CCC(=O)O)C4=N3)C(CC)=C1C`, for which the TGI was 11 µM.
As for `CSc1ccc(N(C)c2nc(C)nc3c2CCC3)cc1`, the GI50 was less than 0.01 µM and the TGI is greater than 100 µM.
For `O=C1/C(=C/c2ccc([N+](=O)[O-])cc2)COc2ccc(O)cc21`, in that order: 1.23 µM and 2.8 µM.
In the case of `CN1c2ccccc2SC2C(c3ccccc3)=NOC21` (configuration not stated), the TGI is greater than 100 µM.
Regarding `O=[N+]([O-])c1ccc(-c2cc3c(Nc4ccc(Cl)c(C(F)(F)F)c4)ncnc3s2)cc1`, the GI50 was 0.982 µM and the TGI was greater than 100 µM.
The corresponding values for `CCOC(=O)N1CCN(CCCCCOc2ccccc2C2CCCCC2)CC1` are 3.2 µM and 13.1 µM.
For `O=C1c2ccccc2-c2c1c1ccccc1c(=O)n2CCNCCn1c2c(c3ccccc3c1=O)C(=O)c1ccccc1-2`, in that order: greater than 25 µM and greater than 25 µM.
On to `CCNCCNc1cc(-c2ccc(C#N)cc2)c(C#N)c2nc3ccccc3n12`, for which the GI50 was 3.59 µM and the TGI was 16.2 µM.
On to `[2H]c1nc(=Nc2cc(NC(=O)C=C)c(N(C)CCN(C)C)cc2OC)[nH]c(-c2cn(C([2H])([2H])[2H])c3ccccc23)c1[2H]`, for which the GI50 was 1.39 µM and the TGI worked out at 3.23 µM.

The next test relates to SF-268 CNS. Put plainly: NCI-60 cell line screen, 48 h.
In turn, `O=C(Cl)C1=C(c2ccccc2)C1c1ccccc1` (configuration not stated) showed a TGI greater than 100 µM.
As for `O=C(/C=C/c1cccc(O)c1)c1cccc(-n2cc(-c3ccc4ccccc4c3)[nH]c2=O)c1`, the GI50 was 1.73 µM and the TGI was 3.55 µM.
As to `c1cnn2ncc(-c3ccnc(Nc4ccc5c(c4)OCCO5)n3)c2c1`, the GI50 is 0.0687 µM and the TGI is 0.311 µM.
With `COc1ccc2[nH]c(-c3ccc(O)cc3)cc(=O)c2c1`, the TGI came out at 20.6 µM.
Still for that read-out and setting: under `Cc1cc(C)n(C2=NS(=O)(=O)c3ccccc3N2C)n1` stands greater than 100 µM; under `COc1ccc2c(NCCCCCCNc3c4ccccc4nc4cc(OC)ccc34)c3ccccc3nc2c1`, 12.5 µM.
With `COc1cccc2c(=O)c3c(sc12)c(NCCCNCCO)nc1ccccc13`, the GI50 was 1.59 µM and the TGI stood at 3.33 µM.
Turning to `O=C(O)c1ccccc1C(=O)c1ccc2c(c1)Cc1ccccc1-2`, the TGI is greater than 100 µM.
Still for that read-out and setting: the same measure for `C=CC1=C(C)C2=NC1=CC1=NC(=CC3=C(C)C4=C(O)[C@H](C(=O)OC)C(=C5NC(=C2)[C@@H](C)[C@@H]5CCC(=O)O)C4=N3)C(CC)=C1C`: greater than 100 µM.
Regarding `CSc1ccc(N(C)c2nc(C)nc3c2CCC3)cc1`, the GI50 was less than 0.01 µM and the TGI was 60.4 µM.
For `O=C1/C(=C/c2ccc([N+](=O)[O-])cc2)COc2ccc(O)cc21`, in that order: 15.3 µM and greater than 100 µM.
`CN1c2ccccc2SC2C(c3ccccc3)=NOC21` (configuration not stated) displayed a TGI greater than 100 µM.
On to `O=[N+]([O-])c1ccc(-c2cc3c(Nc4ccc(Cl)c(C(F)(F)F)c4)ncnc3s2)cc1`, for which the GI50 is 1.34 µM and the TGI is greater than 100 µM.
For `CCOC(=O)N1CCN(CCCCCOc2ccccc2C2CCCCC2)CC1`, in that order: 15.3 µM and 35.1 µM.
For `O=C1c2ccccc2-c2c1c1ccccc1c(=O)n2CCNCCn1c2c(c3ccccc3c1=O)C(=O)c1ccccc1-2`, in that order: greater than 25 µM and greater than 25 µM.
The compound `CC(C)(C)NCC(COc1ccc([N+](=O)[O-])cc1)OP(c1ccccc1)c1ccccc1` (configuration not stated) showed a TGI greater than 100 µM.
Consider `CCNCCNc1cc(-c2ccc(C#N)cc2)c(C#N)c2nc3ccccc3n12`, for which the GI50 is 3.42 µM and the TGI was 14.1 µM.
`Cc1cccc(C)c1N1C(=O)C(=O)C(c2nc3ccccc3s2)C(=Nc2cccc3c(=O)[nH][nH]c(=O)c23)C1=O` (configuration not stated) yielded a TGI greater than 100 µM.
As to `[2H]c1nc(=Nc2cc(NC(=O)C=C)c(N(C)CCN(C)C)cc2OC)[nH]c(-c2cn(C([2H])([2H])[2H])c3ccccc23)c1[2H]`, the GI50 is 1.98 µM and the TGI came to 13 µM.
In the case of `Cn1c(=O)nc2n(-c3ccc(Cl)c(C(F)(F)F)c3)c3ccccc3nc-2c1=O`, the TGI was greater than 100 µM.

For the next test, the system named is CAKI-1 renal. Put plainly: NCI-60 cell line screen, 48 h.
Turning to `O=C(Cl)C1=C(c2ccccc2)C1c1ccccc1` (configuration not stated), the TGI is greater than 100 µM.
For the compound `c1cnn2ncc(-c3ccnc(Nc4ccc5c(c4)OCCO5)n3)c2c1`, the GI50 is 0.0773 µM and the TGI was greater than 8.78 µM.
`Cc1cc(C)n(C2=NS(=O)(=O)c3ccccc3N2C)n1` displayed a TGI greater than 100 µM.
Compound `COc1ccc2c(NCCCCCCNc3c4ccccc4nc4cc(OC)ccc34)c3ccccc3nc2c1` came in with a TGI of 3.39 µM.
For the compound `COc1cccc2c(=O)c3c(sc12)c(NCCCNCCO)nc1ccccc13`, the GI50 was 1.18 µM and the TGI was determined as 2.5 µM.
In the case of `O=C(O)c1ccccc1C(=O)c1ccc2c(c1)Cc1ccccc1-2`, the TGI is greater than 100 µM.
Same read-out and setting: under `C=CC1=C(C)C2=NC1=CC1=NC(=CC3=C(C)C4=C(O)[C@H](C(=O)OC)C(=C5NC(=C2)[C@@H](C)[C@@H]5CCC(=O)O)C4=N3)C(CC)=C1C` stands greater than 100 µM.
Take `CSc1ccc(N(C)c2nc(C)nc3c2CCC3)cc1`: the GI50 was less than 0.01 µM and the TGI is greater than 100 µM.
For `O=C1/C(=C/c2ccc([N+](=O)[O-])cc2)COc2ccc(O)cc21`, in that order: 3.7 µM and 19.3 µM.
For the compound `CN1c2ccccc2SC2C(c3ccccc3)=NOC21` (configuration not stated), the TGI was greater than 100 µM.
Regarding `O=[N+]([O-])c1ccc(-c2cc3c(Nc4ccc(Cl)c(C(F)(F)F)c4)ncnc3s2)cc1`, the GI50 is 2.22 µM and the TGI was 8.32 µM.
Turning to `CCOC(=O)N1CCN(CCCCCOc2ccccc2C2CCCCC2)CC1`, the GI50 was 3.23 µM and the TGI came to 12.8 µM.
As to `O=C1c2ccccc2-c2c1c1ccccc1c(=O)n2CCNCCn1c2c(c3ccccc3c1=O)C(=O)c1ccccc1-2`, the GI50 is greater than 25 µM and the TGI was greater than 25 µM.
`CC(C)(C)NCC(COc1ccc([N+](=O)[O-])cc1)OP(c1ccccc1)c1ccccc1` (configuration not stated): the TGI is greater than 100 µM.
With `CCNCCNc1cc(-c2ccc(C#N)cc2)c(C#N)c2nc3ccccc3n12`, the GI50 was 3.5 µM and the TGI came out at 13.5 µM.
`Cc1cccc(C)c1N1C(=O)C(=O)C(c2nc3ccccc3s2)C(=Nc2cccc3c(=O)[nH][nH]c(=O)c23)C1=O` (configuration not stated) displayed a TGI greater than 100 µM.
For the compound `[2H]c1nc(=Nc2cc(NC(=O)C=C)c(N(C)CCN(C)C)cc2OC)[nH]c(-c2cn(C([2H])([2H])[2H])c3ccccc23)c1[2H]`, the GI50 is 0.503 µM and the TGI came out at 1.89 µM.
In turn, `Cn1c(=O)nc2n(-c3ccc(Cl)c(C(F)(F)F)c3)c3ccccc3nc-2c1=O` had a TGI greater than 100 µM.
